target: human TRPV4 (Homo sapiens (Human), UniProt Q9HBA0); assay: FLIPR assay for hTRPV4 expressed in BHK cells; type: cell-based; conditions: at least one set of experimental runs; TRPV4 FLIPR assay; read-out: average IC50
Procedure, shortened: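 BHK/AC9 cells transduced with BacMam human TRPV4 (MOI 78), 15,000 cells/well, cultured 24 h at 37 °C. Loaded with 2 μM Fluo-4 AM and 500 μM Brilliant Black in HBSS for 1–1.5 h at room temperature in the dark. Intracellular calcium influx monitored by fluorescence.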

Chain of human TRPV4 (Q9HBA0 whole entry): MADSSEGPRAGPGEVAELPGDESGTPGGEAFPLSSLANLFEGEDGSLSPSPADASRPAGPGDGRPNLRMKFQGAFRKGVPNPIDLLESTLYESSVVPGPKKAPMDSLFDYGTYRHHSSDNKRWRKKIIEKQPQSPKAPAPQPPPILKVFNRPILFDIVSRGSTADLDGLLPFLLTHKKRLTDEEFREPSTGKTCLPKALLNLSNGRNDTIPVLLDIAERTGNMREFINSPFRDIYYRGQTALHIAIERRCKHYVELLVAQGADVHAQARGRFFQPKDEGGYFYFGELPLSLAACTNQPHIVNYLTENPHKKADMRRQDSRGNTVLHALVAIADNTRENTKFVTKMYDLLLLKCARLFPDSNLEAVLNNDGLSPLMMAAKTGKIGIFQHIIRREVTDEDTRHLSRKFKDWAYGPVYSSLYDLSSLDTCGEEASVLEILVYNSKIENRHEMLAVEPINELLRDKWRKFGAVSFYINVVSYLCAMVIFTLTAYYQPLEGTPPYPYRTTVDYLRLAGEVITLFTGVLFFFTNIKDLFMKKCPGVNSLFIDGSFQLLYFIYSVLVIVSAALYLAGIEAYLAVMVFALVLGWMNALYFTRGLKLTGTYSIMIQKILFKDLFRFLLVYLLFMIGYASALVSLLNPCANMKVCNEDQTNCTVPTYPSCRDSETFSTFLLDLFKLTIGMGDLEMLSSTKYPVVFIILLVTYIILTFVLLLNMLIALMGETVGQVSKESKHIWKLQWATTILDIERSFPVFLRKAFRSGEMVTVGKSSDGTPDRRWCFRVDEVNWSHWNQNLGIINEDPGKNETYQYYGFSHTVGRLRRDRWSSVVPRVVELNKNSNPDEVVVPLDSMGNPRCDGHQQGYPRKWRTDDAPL

| Compound | IC50 |
| --- | --- |
| N#Cc1ccc(S(=O)(=O)[C@H]2CN(S(=O)(=O)c3ccc(F)cc3Br)C[C@@]2(O)CO)cc1 [Example 22, 4-(((3S,4R)-1-((2-bromo-4-fluorophenyl)sulfonyl)-4-hydroxy-4-(hydroxymethyl)pyrrolidin-3-yl)sulfonyl)benzonitrile] | 0.013 µM |

same assay, conditions: inhibition of Agonist Compound (EC80)-induced calcium signal; BHK/AC9 cells expressing human TRPV4; read-out: IC50

| Compound | IC50 |
| --- | --- |
| N#Cc1ccc(S(=O)(=O)N2C[C@H](S(=O)(=O)c3ccc(C(F)(F)F)cc3)[C@](O)(CO)C2)c(OC2CC2)c1 [Example 57, 3-cyclopropoxy-4-(((3R,4S)-3-hydroxy-3-(hydroxymethyl)-4-((4-(trifluoromethyl)phenyl)sulfonyl)pyrrolidin-1-yl)sulfonyl)benzonitrile] | 0.01 to 0.1 µM |
| N#Cc1ccc(S(=O)(=O)[C@H]2CN(S(=O)(=O)c3ccc(C(F)(F)F)cc3F)C[C@@]2(O)CO)cc1 [Example 36, 4-(((3S,4R)-1-((2-fluoro-4-(trifluoromethyl)phenyl)sulfonyl)-4-hydroxy-4-(hydroxymethyl)pyrrolidin-3-yl)sulfonyl)benzonitrile] | 0.01 to 0.1 µM |
| COc1cc(C#N)ccc1S(=O)(=O)N1C[C@H](S(=O)(=O)c2ccc(Cl)cc2)[C@](O)(CO)C1 [Example 35, 4-(((3R,4S)-4-((4-chlorophenyl)sulfonyl)-3-hydroxy-3-(hydroxymethyl)pyrrolidin-1-yl)sulfonyl)-3-methoxybenzonitrile] | 0.0001 to 0.01 µM |
| O=S(=O)(c1ccc(Cl)c(F)c1)[C@H]1CN(S(=O)(=O)c2ccc(C(F)(F)F)cc2Cl)C[C@]1(O)CO [Example 78, (3S,4S)-4-((4-chloro-3-fluorophenyl)sulfonyl)-1-((2-chloro-4-(trifluoromethyl)phenyl)sulfonyl)-3-(hydroxymethyl)pyrrolidin-3-ol] | 0.01 to 0.1 µM |
| O=S(=O)(c1ccc(Cl)c(Cl)c1)[C@H]1CN(S(=O)(=O)c2ccc(Cl)cc2Cl)C[C@@]1(O)CO [Example 114, (3R,4S)-1-((2,4-dichlorophenyl)sulfonyl)-4-((3,4-dichlorophenyl)sulfonyl)-3-(hydroxymethyl)pyrrolidin-3-ol] | 0.01 to 0.1 µM |
| N#Cc1ccc(S(=O)(=O)[C@H]2CN(S(=O)(=O)c3ccc(C#N)cc3Cl)C[C@@]2(O)CO)cc1 [Example 45, 3-chloro-4-(((3R,4S)-4-((4-cyanophenyl)sulfonyl)-3-hydroxy-3-(hydroxymethyl)pyrrolidin-1-yl)sulfonyl)benzonitrile] | 0.0001 to 0.01 µM |
| O=S(=O)(c1ccc(F)c(F)c1)[C@H]1CN(S(=O)(=O)c2ccc(Cl)cc2Cl)C[C@@]1(O)CO [Example 85, (3R,4S)-1-((2,4-dichlorophenyl)sulfonyl)-4-((3,4-difluorophenyl)sulfonyl)-3-(hydroxymethyl)pyrrolidin-3-ol] | 0.01 to 0.1 µM |
| COC(=O)c1ccc(S(=O)(=O)[C@H]2CN(S(=O)(=O)c3ccc(Cl)cc3C(F)F)C[C@@]2(O)CO)cc1 [Example 64] | 0.01 to 0.1 µM |
| N#Cc1ccc(S(=O)(=O)N2C[C@H](S(=O)(=O)c3ccc(Cl)cc3)[C@](O)(CO)C2)c(Br)c1 [Example 38, 3-bromo-4-(((3R,4S)-4-((4-chlorophenyl)sulfonyl)-3-hydroxy-3-(hydroxymethyl)pyrrolidin-1-yl)sulfonyl)benzonitrile] | 0.0001 to 0.01 µM |
| N#Cc1ccc(S(=O)(=O)N2C[C@H](S(=O)(=O)c3ccc(Cl)cc3)[C@@](O)(CNCC(F)(F)F)C2)c(Cl)c1 [Example 128, 3-chloro-4-(((3R,4S)-4-((4-chlorophenyl)sulfonyl)-3-hydroxy-3-(((2,2,2-trifluoroethyl)amino)methyl)pyrrolidin-1-yl)sulfonyl)benzonitrile] | 0.01 to 0.1 µM |
| N#Cc1ccc(S(=O)(=O)[C@H]2CN(S(=O)(=O)c3ccccc3C(F)(F)F)C[C@@]2(O)CO)cc1 [Example 41, 4-(((3S,4R)-4-hydroxy-4-(hydroxymethyl)-1-((2-(trifluoromethyl)phenyl)sulfonyl)pyrrolidin-3-yl)sulfonyl)benzonitrile] | 0.01 to 0.1 µM |
| N#Cc1ccc(S(=O)(=O)[C@H]2CN(S(=O)(=O)c3ccc(F)cc3Cl)C[C@@]2(O)CO)cc1F [Example 12, 4-(((3S,4R)-1-((2-chloro-4-fluorophenyl)sulfonyl)-4-hydroxy-4-(hydroxymethyl)pyrrolidin-3-yl)sulfonyl)-2-fluorobenzonitrile] | 0.0001 to 0.01 µM |
| N#Cc1ccc(S(=O)(=O)[C@H]2CN(S(=O)(=O)c3ccc(C(F)(F)F)cc3Cl)C[C@]2(O)CO)cc1 [Example 90, 4-(((3S,4S)-1-((2-chloro-4-(trifluoromethyl)phenyl)sulfonyl)-4-hydroxy-4-(hydroxymethyl)pyrrolidin-3-yl)sulfonyl)benzonitrile] | 0.01 to 0.1 µM |
| N#Cc1ccc(S(=O)(=O)[C@H]2CN(S(=O)(=O)c3ccc(Cl)cc3Cl)C[C@@]2(O)CO)c(F)c1 [Example 86, 4-(((3S,4R)-1-((2,4-dichlorophenyl)sulfonyl)-4-hydroxy-4-(hydroxymethyl)pyrrolidin-3-yl)sulfonyl)-3-fluorobenzonitrile] | 0.01 to 0.1 µM |
| N#Cc1ccc(S(=O)(=O)N2C[C@H](S(=O)(=O)c3ccc(Cl)cc3)[C@](O)(CO)C2)c(C(F)(F)F)c1 [Example 19, 4-(((3R,4S)-4-((4-chlorophenyl)sulfonyl)-3-hydroxy-3-(hydroxymethyl)pyrrolidin-1-yl)sulfonyl)-3-(trifluoromethyl)benzonitrile] | 0.0001 to 0.01 µM |
| N#Cc1ccc(S(=O)(=O)N2C[C@H](S(=O)(=O)c3cnc(C(F)(F)F)nc3)[C@](O)(CO)C2)c(Cl)c1 [Example 112, 3-chloro-4-(((3R,4S)-3-hydroxy-3-(hydroxymethyl)-4-((2-(trifluoromethyl)pyrimidin-5-yl)sulfonyl)pyrrolidin-1-yl)sulfonyl)benzonitrile] | 0.01 to 0.1 µM |
| N#Cc1cc(C(F)(F)F)ccc1S(=O)(=O)N1C[C@H](S(=O)(=O)c2ccc(Cl)cc2)[C@](O)(CO)C1 [Example 117, 2-(((3R,4S)-4-((4-chlorophenyl)sulfonyl)-3-hydroxy-3-(hydroxymethyl)pyrrolidin-1-yl)sulfonyl)-5-(trifluoromethyl)benzonitrile] | 0.0001 to 0.01 µM |
| N#Cc1ccc(S(=O)(=O)N2C[C@H](S(=O)(=O)c3ccc(C(F)(F)F)nc3)[C@](O)(CO)C2)c(Cl)c1 [Example 26, 3-chloro-4-(((3R,4S)-3-hydroxy-3-(hydroxymethyl)-4-((6-(trifluoromethyl)pyridin-3-yl)sulfonyl)pyrrolidin-1-yl)sulfonyl)benzonitrile] | 0.01 to 0.1 µM |
| N#Cc1ccc(S(=O)(=O)[C@H]2CN(S(=O)(=O)c3ccc(F)cc3Cl)C[C@@]2(O)CO)cc1 [Example 62, 4-(((3S,4R)-1-((2-chloro-4-fluorophenyl)sulfonyl)-4-hydroxy-4-(hydroxymethyl)pyrrolidin-3-yl)sulfonyl)benzonitrile] | 0.01 to 0.1 µM |
| N#Cc1ccc(S(=O)(=O)[C@H]2CN(S(=O)(=O)c3ccc(Cl)cc3C#N)C[C@@]2(O)CO)cc1 [Example 84, 5-chloro-2-(((3R,4S)-4-((4-cyanophenyl)sulfonyl)-3-hydroxy-3-(hydroxymethyl)pyrrolidin-1-yl)sulfonyl)benzonitrile] | 0.0001 to 0.01 µM |
| N#Cc1ccc(S(=O)(=O)N2C[C@H](S(=O)(=O)c3ccc(Cl)cc3)[C@](O)(CO)C2)c(OC2CC2)c1 [Example 50, 4-(((3R,4S)-4-((4-chlorophenyl)sulfonyl)-3-hydroxy-3-(hydroxymethyl)pyrrolidin-1-yl)sulfonyl)-3-cyclopropoxybenzonitrile] | 0.01 to 0.1 µM |
| Cc1ccc(S(=O)(=O)N2C[C@H](S(=O)(=O)c3ccc(C#N)c(F)c3)[C@@](O)(CO)C2)c(Cl)c1 [Example 6, 4-(((3S,4S)-1-((2-chloro-4-methylphenyl)sulfonyl)-4-hydroxy-4-(hydroxymethyl)pyrrolidin-3-yl)sulfonyl)-2-fluorobenzonitrile] | 0.01 to 0.1 µM |
| N#Cc1ccc(S(=O)(=O)N2C[C@H](S(=O)(=O)c3ccc(C(F)(F)F)cc3)[C@](O)(CO)C2)c(Cl)c1 [Example 54, 3-chloro-4-(((3R,4S)-3-hydroxy-3-(hydroxymethyl)-4-((4-(trifluoromethyl)phenyl)sulfonyl)pyrrolidin-1-yl)sulfonyl)benzonitrile] | 0.0001 to 0.01 µM |
| Cc1cc(C#N)ccc1S(=O)(=O)N1C[C@H](S(=O)(=O)c2ccc(Cl)cc2)[C@](O)(CO)C1 [Example 20, 4-(((3R,4S)-4-((4-chlorophenyl)sulfonyl)-3-hydroxy-3-(hydroxymethyl)pyrrolidin-1-yl)sulfonyl)-3-methylbenzonitrile] | 0.01 to 0.1 µM |
| N#Cc1ccc(S(=O)(=O)[C@H]2CN(S(=O)(=O)c3ccc(Cl)cc3C(F)(F)F)C[C@@]2(O)CO)cc1 [Example 25, 4-(((3S,4R)-1-((4-chloro-2-(trifluoromethyl)phenyl)sulfonyl)-4-hydroxy-4-(hydroxymethyl)pyrrolidin-3-yl)sulfonyl)benzonitrile] | 0.0001 to 0.01 µM |
| O=S(=O)(c1ccc(C(F)(F)F)nc1)[C@H]1CN(S(=O)(=O)c2ccc(Cl)cc2Cl)C[C@@]1(O)CO [Example 118, (3R,4S)-1-((2,4-dichlorophenyl)sulfonyl)-3-(hydroxymethyl)-4-((6-(trifluoromethyl)pyridin-3-yl)sulfonyl)pyrrolidin-3-ol] | 0.01 to 0.1 µM |
| N#Cc1ccc(S(=O)(=O)N2C[C@H](S(=O)(=O)c3ccc(Cl)cn3)[C@@](O)(CO)C2)c(Cl)c1 [Example 109, 3-chloro-4-(((3S,4S)-4-((5-chloropyridin-2-yl)sulfonyl)-3-hydroxy-3-(hydroxymethyl)pyrrolidin-1-yl)sulfonyl)benzonitrile] | 0.01 to 0.1 µM |
| N#Cc1c(F)cc(S(=O)(=O)[C@H]2CN(S(=O)(=O)c3ccc(Cl)cc3Cl)C[C@@]2(O)CO)cc1F [Example 87, 4-(((3S,4R)-1-((2,4-dichlorophenyl)sulfonyl)-4-hydroxy-4-(hydroxymethyl)pyrrolidin-3-yl)sulfonyl)-2,6-difluorobenzonitrile] | 0.0001 to 0.01 µM |
| COc1cc(C#N)ccc1S(=O)(=O)N1C[C@H](S(=O)(=O)c2ccc(C(F)(F)F)cc2)[C@](O)(CO)C1 [Example 56, 4-(((3R,4S)-3-hydroxy-3-(hydroxymethyl)-4-((4-(trifluoromethyl)phenyl)sulfonyl)pyrrolidin-1-yl)sulfonyl)-3-methoxybenzonitrile] | 0.01 to 0.1 µM |
| N#Cc1ccc(S(=O)(=O)[C@H]2CN(S(=O)(=O)c3ccc(F)cc3Br)C[C@@]2(O)CO)cc1 [Example 22, 4-(((3S,4R)-1-((2-bromo-4-fluorophenyl)sulfonyl)-4-hydroxy-4-(hydroxymethyl)pyrrolidin-3-yl)sulfonyl)benzonitrile] | 0.01 to 0.1 µM |
